Source: patent US11980609B2, “LPA receptor antagonists and uses thereof” (Gilead Sciences, Inc., priority 2021, dated 2024)

Molecular target: T1, human LPAR1 (Homo sapiens, UniProt Q92633)
T1 construct: host or cells: CHO-K1
Test: LPAR1 intracellular calcium mobilization assay (antagonist mode)
Assay type: cell-based
Conditions: CHO-K1 EDG2 cells expressing human LPAR1; 60 min pre-incubation with compound (0.5 nM to 10 μM), then LPA 18:2 challenge; FLIPR Tetra calcium signal
Description: In vitro LPAR1 activity was measured in an intracellular calcium mobilization assay.
CHO-K1 EDG2 cells (DiscoverX cat #93-0644C2) expressing human LPAR1 (NM_001401.3) were seeded in a total volume of 25 μL of Dulbecco's Modification of Eagle's Medium (DMEM) with 10% Fetal Bovine Serum, 1× PenStrepGlutamine, 300 μg/ml Hygromycin, and 800 μg/ml G418 into 384-well tissue culture plate (Grenier #781091) at 15,000 cells/well and incubated at 37° C. overnight. Prior to testing, 25 μL Calcium Loading Dye Component A (FLIPR Calcium 6 Assay Kit Molecular Device #R8190) and 2.5 mM Probenecid (Invitrogen #P36400, prepared fresh) in Hank's Balanced Salt Solution (Corning #21-023-CV), 20 mM HEPES (Corning #25-060-CI), 0.1% Bovine Serum Albumin (Sigma-Aldrich #A7906-500G) was add to the cells for 60 minutes at 37° C.
Agonist dose curves of LPA 18:2 (Avanti Polar Lipids cat #857138, 0.5 nM to 10 μM) were recorded to determine the LPA 18:2 EC80 for subsequent antagonist assays. For agonist dose curves, cells were removed from the incubator 2 hours after dye loading and transferred to the FLIPR Tetra instrument (Molecular Devices, San Jose, CA). Calcium mobilization was monitored for 5 min and 10 μL 6×LPA in HBSS/20 mM Hepes/0.1% bovine serum albumin (BSA) was added to the cells 5 seconds into the assay.
To determine the LPAR1 antagonist activity of test compounds, cells were pre-incubated with test compound at a dose range of 0.5 nM to 10 μM, followed by LPA at […] concentration (100 nM). After dye loading, cells were removed from the incubator and 0.3 μL of 200× antagonist was added. Cells were incubated for 60 minutes at 37° C. Antagonist activity was measured on a FLIPR Tetra. Calcium mobilization was monitored for 3.5 minutes and 10 μL 6×EC80 LPA in HBSS, 20 mM HEPES, and 0.1% BSA was added to the cells 5 seconds into the assay. Signal amplitude (Maximum minus minimum) values were plotted against log10 of antagonist concentration using Dose Response Tool (Gilead Sciences Inc.) to determine EC50.
To assess the antagonistic potential of exemplified compounds EC50 values were determined for Compounds 1 to 55 in the LPAR1 calcium mobilization assay. The compound numbers correspond to the compound numbers in Examples 1 to 35. N/A=not available.

T1 sequence (Q92633 whole entry): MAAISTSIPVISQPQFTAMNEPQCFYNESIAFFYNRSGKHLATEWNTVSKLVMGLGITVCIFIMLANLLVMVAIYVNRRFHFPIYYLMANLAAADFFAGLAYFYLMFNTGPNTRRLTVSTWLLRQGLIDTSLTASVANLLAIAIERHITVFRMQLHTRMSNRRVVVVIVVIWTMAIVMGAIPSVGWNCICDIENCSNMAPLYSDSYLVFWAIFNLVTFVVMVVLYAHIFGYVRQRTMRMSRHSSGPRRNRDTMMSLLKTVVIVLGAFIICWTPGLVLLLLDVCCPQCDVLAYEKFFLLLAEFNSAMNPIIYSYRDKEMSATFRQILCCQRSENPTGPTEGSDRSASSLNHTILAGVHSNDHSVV

Structure (SMILES) | EC50 [nM]
C[C@@H](OC(=O)Nc1c(-c2ccc(NS(C)(=O)=O)cc2)cnn1C)c1ccccc1Cl [Compound 1, (R)-1-(2-chlorophenyl)ethyl (1-methyl-4-(4-(methylsulfonamido)phenyl)-1H-pyrazol-5-yl)carbamate] | 11.7
Cc1nc(-c2cnn(C)c2NC(=O)O[C@H](C)c2cccnc2Cl)ncc1OS(C)(=O)=O [Compound 3, (R)-2-(5-(((1-(2-chloropyridin-3-yl)ethoxy)carbonyl)amino)-1-methyl-1H-pyrazol-4-yl)-4-methylpyrimidin-5-yl methanesulfonate] | 39.6
Cc1nc(-c2cnn(C)c2NC(=O)O[C@H](C)c2cccnc2Cl)ncc1O [Compound 4, (R)-1-(2-chloropyridin-3-yl)ethyl (4-(5-hydroxy-4-methylpyrimidin-2-yl)-1-methyl-1H-pyrazol-5-yl)carbamate] | 167
CCS(=O)(=O)Oc1cnc(-c2cnn(C)c2NC(=O)O[C@H](C)c2cc(F)cnc2Cl)nc1 [Compound 5, (R)-2-(5-(((1-(2-chloro-5-fluoropyridin-3-yl)ethoxy)carbonyl)amino)-1-methyl-1H-pyrazol-4-yl)pyrimidin-5-yl ethanesulfonate] | 51.5
C[C@@H](OC(=O)Nc1c(-c2ncc(OS(C)(=O)=O)cn2)cnn1C)c1cc(F)cnc1Cl [Compound 6, (R)-2-(5-(((1-(2-chloro-5-fluoropyridin-3-yl)ethoxy)carbonyl)amino)-1-methyl-1H-pyrazol-4-yl)pyrimidin-5-yl methanesulfonate] | 14.1
C[C@@H](OC(=O)Nc1c(-c2ncc(OS(=O)(=O)C3CC3)cn2)cnn1C)c1cccnc1F [Compound 7, (R)-2-(5-(((1-(2-fluoropyridin-3-yl)ethoxy)carbonyl)amino)-1-methyl-1H-pyrazol-4-yl)pyrimidin-5-yl cyclopropanesulfonate] | 1410
C[C@@H](OC(=O)Nc1c(-c2ncc(OS(C)(=O)=O)cn2)cnn1C)c1cccnc1F [Compound 8, (R)-2-(5-(((1-(2-fluoropyridin-3-yl)ethoxy)carbonyl)amino)-1-methyl-1H-pyrazol-4-yl)pyrimidin-5-yl methanesulfonate] | 523
C[C@@H](OC(=O)Nc1c(-c2ncc(OS(C)(=O)=O)cn2)cnn1C)c1cccnc1Cl [Compound 9, (R)-2-(5-(((1-(2-chloropyridin-3-yl)ethoxy)carbonyl)amino)-1-methyl-1H-pyrazol-4-yl)pyrimidin-5-yl methanesulfonate] | 42.9
C[C@@H](OC(=O)Nc1c(-c2ncc(O)cc2F)cnn1C)c1cccnc1Cl [Compound 10, (R)-1-(2-chloropyridin-3-yl)ethyl (4-(3-fluoro-5-hydroxypyridin-2-yl)-1-methyl-1H-pyrazol-5-yl)carbamate] | 56.8
C[C@@H](OC(=O)Nc1c(-c2ncc(OS(C)(=O)=O)cc2F)cnn1C)c1cc(F)cnc1F [Compound 11, (R)-6-(5-(((1-(2,5-difluoropyridin-3-yl)ethoxy)carbonyl)amino)-1-methyl-1H-pyrazol-4-yl)-5-fluoropyridin-3-yl methanesulfonate] | 74
C[C@@H](OC(=O)Nc1c(-c2ncc(OS(C)(=O)=O)cc2F)cnn1C)c1cccnc1Cl [Compound 12, (R)-6-(5-(((1-(2-chloropyridin-3-yl)ethoxy)carbonyl)amino)-1-methyl-1H-pyrazol-4-yl)-5-fluoropyridin-3-yl methanesulfonate] | 31.1
Cc1nc(-c2cnn(C)c2NC(=O)O[C@H](C)c2cccc(F)c2)ccc1NS(C)(=O)=O [Compound 13, (R)-1-(3-fluorophenyl)ethyl (1-methyl-4-(6-methyl-5-(methylsulfonamido)pyridin-2-yl)-1H-pyrazol-5-yl)carbamate] | 1250
COC(=O)Nc1ccc(-c2cnn(C)c2NC(=O)O[C@H](C)c2cccc(F)c2)nc1C [Compound 14, (R)-1-(3-fluorophenyl)ethyl (4-(5-((methoxycarbonyl)amino)-6-methylpyridin-2-yl)-1-methyl-1H-pyrazol-5-yl)carbamate] | 4180
C[C@@H](OC(=O)Nc1c(-c2ccc3c(n2)OCC(=O)N3)cnn1C)c1cc(F)cnc1Cl [Compound 15, (R)-1-(2-chloro-5-fluoropyridin-3-yl)ethyl (1-methyl-4-(2-oxo-2,3-dihydro-1H-pyrido[2,3-b][1,4]oxazin-6-yl)-1H-pyrazol-5-yl)carbamate] | 25.7
C[C@@H](OC(=O)Nc1c(-c2ncc(NC(=O)C34CC(F)(C3)C4)cc2F)cnn1C)c1cc(F)cnc1F [Compound 16, (R)-1-(2,5-difluoropyridin-3-yl)ethyl (4-(3-fluoro-5-(3-fluorobicyclo[1.1.1]pentane-1-carboxamido)pyridin-2-yl)-1-methyl-1H-pyrazol-5-yl)carbamate] | 15.8
C[C@@H](OC(=O)Nc1c(-c2ncc(NC(=O)C3(C#N)CC3)cc2F)cnn1C)c1cc(F)cnc1F [Compound 17, (R)-1-(2,5-difluoropyridin-3-yl)ethyl (4-(5-(1-cyanocyclopropane-1-carboxamido)-3-fluoropyridin-2-yl)-1-methyl-1H-pyrazol-5-yl)carbamate] | 19.7
C[C@@H](OC(=O)Nc1c(-c2ncc(NC(=O)c3cnc(C(F)F)nc3)cc2F)cnn1C)c1cc(F)cnc1F [Compound 18, (R)-1-(2,5-difluoropyridin-3-yl)ethyl (4-(5-(2-(difluoromethyl)pyrimidine-5-carboxamido)-3-fluoropyridin-2-yl)-1-methyl-1H-pyrazol-5-yl)carbamate] | 36.1
C[C@@H](OC(=O)Nc1c(-c2ccc(NC(=O)C3(C#N)CC3)cn2)cnn1C)c1cc(F)cnc1F [Compound 19, (R)-1-(2,5-difluoropyridin-3-yl)ethyl (4-(5-(1-cyanocyclopropane-1-carboxamido)pyridin-2-yl)-1-methyl-1H-pyrazol-5-yl)carbamate] | 763
C[C@@H](OC(=O)Nc1c(-c2ccc(NS(C)(=O)=O)cn2)cnn1C)c1cccnc1Cl [Compound 20, (R)-1-(2-chloropyridin-3-yl)ethyl (1-methyl-4-(5-(methylsulfonamido)pyridin-2-yl)-1H-pyrazol-5-yl)carbamate] | 216
C[C@@H](OC(=O)Nc1c(-c2ncc(NC(=O)C3(C#N)CC3)cn2)cnn1C)c1cc(F)cnc1F [Compound 21, (R)-1-(2,5-difluoropyridin-3-yl)ethyl (4-(5-(1-cyanocyclopropane-1-carboxamido)pyrimidin-2-yl)-1-methyl-1H-pyrazol-5-yl)carbamate] | 81.5
C[C@@H](OC(=O)Nc1c(-c2ncc(NC(=O)c3cnc(C(F)(F)F)nc3)cn2)cnn1C)c1cc(F)cnc1F [Compound 22, (R)-1-(2,5-difluoropyridin-3-yl)ethyl (1-methyl-4-(5-(2-(trifluoromethyl)pyrimidine-5-carboxamido)pyrimidin-2-yl)-1H-pyrazol-5-yl)carbamate] | 8.9
C[C@@H](OC(=O)Nc1c(-c2ncc(NC(=O)C3(C#N)CC3)cn2)cnn1C)c1cc(F)cnc1Cl [Compound 23, (R)-1-(2-chloro-5-fluoropyridin-3-yl)ethyl (4-(5-(1-cyanocyclopropane-1-carboxamido)pyrimidin-2-yl)-1-methyl-1H-pyrazol-5-yl)carbamate] | 16.8
